Laboratory results published in article PMC11031590, “Narazaciclib, a novel multi-kinase inhibitor with potent activity against CSF1R, FLT3 and CDK6, shows strong anti-AML activity in defined preclinical models” (Scientific Reports, 2024).

Key:
Ba/F3-CSF1R cell line = assay: Ba/F3-CSF1R proliferation assay (CTG); format: cell-based, mouse
Method: (§1) The recombinant Ba/F3 cell lines overexpressing human CSF1R, or human RBM6-CSF1R, or human ETV6-CSF1R were generated using a retrovirus vector (Kyinno Co., Ltd. Beijing). The recombinant Ba/F3 lines overexpressing human Kras G12C orEGFR-L718Q mutants, and different mutant variants of FLT3 were also similarly created as well. A standard proliferation assay via CTG readout was performed according to the vendor’s instructions (KYinno Biotechnology Co., Ltd. Beijing).

Ba/F3-EGFR-L718Q = Ba/F3-EGFR-L718Q proliferation assay (CTG); format: cell-based; conditions: Mus musculus
Method: as §1

OCI-M1 = assay: AML cell line in vitro proliferation assay; format: cell-based
Method: (§2) Narazaciclib was serially diluted with culture medium to 9 final assay concentrations from 0.01 to 100 μM. The assay was performed with both a negative control (vehicle) and a positive control (Cisplatin) in triplicate. The AML cell lines at log-growth phase were cultured in 96-well plates (black transparent flat bottom 96-well plate, Corning, Cat# 3603, FBS, ExCell Bio., Cat# FND500) in the presence of narazaciclib or Cisplatin at various concentrations for 72 h or 120 h (only for AML-193 cell line), followed by CTG readout according to the manufacturer’s instruction (CellTiter-Glo Luminescent Cell Viability Assay, Promega, Cat# G7573). Viability%=Lumdrug-Lummedium control/Lumcell control-Lummedium control×100%. Lumcell control-Lummedium controlas100%,LumMediumcontrolas0%. Proliferationfold increase=D5-LumNone treated-LumMedium control/D2LumNone treated-LumMedium control
(§3) Dose–response curves were fitted by a 4-parameter log-logistic model: Inhibition%=Bottom+Top-Bottom/1+10^logEC50-x∗HillSlope where Top and Bottom are the two asymptotes of the sigmoidal curve, EC50 is the relative IC50, concentration x is in log-10 scale and HillSlope is the slope at the EC50 point on the fitted curve. The fitted area under the curve (AUC) was calculated by: Inhibition%=Bottom+Top-Bottom/1+10^logEC50-x∗HillSlope where a represents the log10-transformed minimal concentration and b represents the log10-transformed maximal concentration. An extremely strong positive correlation between the absolute IC50 and AUC is shown in Supplemental Fig. S5.

KASUMI-6 = assay: AML cell line in vitro proliferation assay; format: cell-based
Method: as §2, §3

MONOMAC-1 = assay: AML cell line in vitro proliferation assay; format: cell-based
Method: as §2, §3

MV-4–11 = assay: AML cell line in vitro proliferation assay; format: cell-based
Method: as §2, §3

EOL1 = assay: AML cell line in vitro proliferation assay; format: cell-based
Method: as §2, §3

ML2 = assay: AML cell line in vitro proliferation assay; format: cell-based
Method: as §2, §3

UT7 = assay: AML cell line in vitro proliferation assay; format: cell-based
Method: as §2, §3

PL21 = assay: AML cell line in vitro proliferation assay; format: cell-based
Method: as §2, §3

OCI-AML-3 = assay: AML cell line in vitro proliferation assay; format: cell-based
Method: as §2, §3

TF-1 = assay: AML cell line in vitro proliferation assay; format: cell-based
Method: as §2, §3

CMK = assay: AML cell line in vitro proliferation assay; format: cell-based
Method: as §2, §3

CMK-115 = assay: AML cell line in vitro proliferation assay; format: cell-based
Method: as §2, §3

KG-1A = assay: AML cell line in vitro proliferation assay; format: cell-based
Method: as §2, §3

NB4 = assay: AML cell line in vitro proliferation assay; format: cell-based
Method: as §2, §3

AML-193 = assay: AML cell line in vitro proliferation assay; format: cell-based
Method: as §2, §3

MOLM-16 = assay: AML cell line in vitro proliferation assay; format: cell-based
Method: as §2, §3

MOLM-13 = assay: AML cell line in vitro proliferation assay; format: cell-based
Method: as §2, §3

MONOMAC-6 = assay: AML cell line in vitro proliferation assay; format: cell-based
Method: as §2, §3

HL-60 = assay: AML cell line in vitro proliferation assay; format: cell-based
Method: as §2, §3

KASUMI-1 = assay: AML cell line in vitro proliferation assay; format: cell-based
Method: as §2, §3

THP-1 = assay: AML cell line in vitro proliferation assay; format: cell-based
Method: as §2, §3

[1] = area under the dose–response curve

Structure (SMILES): CN1CCN(c2ccc(Nc3ncc4cc(C#N)c(=O)n(C5CCCC5)c4n3)cc2)CC1 [Narazaciclib, narazaciclib]
- times more potent than GW2580 (Ba/F3-CSF1R cell line; Ba/F3-CSF1R in the presence of CSF1): 16 times
- IC50 (Ba/F3-CSF1R cell line; Mus musculus, + 100 ng/ml CSF-1): ~3.54 nM
- IC50 (Ba/F3-EGFR-L718Q): 633 nM
- Classification by AUC (OCI-M1; OCI-M1): Insensitive (AUC ≥ 2.8, insensitive)
- IC50 (OCI-M1; OCI-M1, 72 h, CTG): 19500 nM
- AUC (OCI-M1; OCI-M1, area under the dose–response curve): 3.404
- Classification by AUC (KASUMI-6; KASUMI-6): Sensitive (AUC ≤ 2.4, sensitive)
- IC50 (KASUMI-6; KASUMI-6, 72 h, CTG): 1480 nM
- AUC (KASUMI-6; KASUMI-6, area under the dose–response curve): 2.251
- Classification by AUC (MONOMAC-1; MONOMAC-1): Sensitive (AUC ≤ 2.4, sensitive)
- AUC (MONOMAC-1; MONOMAC-1, area under the dose–response curve): 1.906
- IC50 (MONOMAC-1; Mono-Mac-1, MONOMAC-1, 72 h, CTG): 297 nM
- IC50 (MV-4–11; Homo sapiens, MV4-11, MV-4–11, 72 h, CTG): 264 nM
- Classification by AUC (MV-4–11; MV-4–11): Sensitive (AUC ≤ 2.4, sensitive)
- AUC (MV-4–11; MV-4–11, area under the dose–response curve): 1.454
- Classification by AUC (EOL1; EOL1): Sensitive (AUC ≤ 2.4, sensitive)
- AUC (EOL1; EOL1, area under the dose–response curve): 0.5917
- IC50 (EOL1; Homo sapiens, EOL1, 72 h, CTG): 35 nM
- IC50 (ML2; Homo sapiens, ML-2, ML2, 72 h, CTG): 3600 nM
- Classification by AUC (ML2; ML2): Intermediate (2.4 < AUC < 2.8, intermediate)
- AUC (ML2; ML2, area under the dose–response curve): 2.633
- IC50 (UT7; Homo sapiens, UT7, 72 h, CTG): 62400 nM
- Classification by AUC (UT7; UT7): Insensitive (AUC ≥ 2.8, insensitive)
- AUC (UT7; UT7, area under the dose–response curve): 3.469
- Classification by AUC (PL21; PL21): Sensitive (AUC ≤ 2.4, sensitive)
- AUC (PL21; PL21, area under the dose–response curve): 2.37
- IC50 (PL21; PL-21, PL21, 72 h, CTG): 3400 nM
- IC50 (OCI-AML-3; Homo sapiens, OCI-AML-3, 72 h, CTG): 2940 nM
- Classification by AUC (OCI-AML-3; OCI-AML-3): Insensitive (AUC ≥ 2.8, insensitive)
- AUC (OCI-AML-3; OCI-AML-3, area under the dose–response curve): 2.863
- IC50 (TF-1; Homo sapiens, TF-1, 72 h, CTG): 50800 nM
- Classification by AUC (TF-1; TF-1): Insensitive (AUC ≥ 2.8, insensitive)
- AUC (TF-1; TF-1, area under the dose–response curve): 3.502
- Classification by AUC (CMK): Sensitive (AUC ≤ 2.4, sensitive)
- IC50 (CMK; Homo sapiens, 72 h, CTG): 1650 nM
- AUC (CMK; [1]): 2.347
- IC50 (CMK-115; CMK-11-5, CMK-115, 72 h, CTG): 5070 nM
- Classification by AUC (CMK-115; CMK-115): Insensitive (AUC ≥ 2.8, insensitive)
- AUC (CMK-115; CMK-115, area under the dose–response curve): 2.801
- Classification by AUC (KG-1A): Sensitive (AUC ≤ 2.4, sensitive)
- IC50 (KG-1A; Homo sapiens, 72 h, CTG): 1060 nM
- AUC (KG-1A; [1]): 2.289
- IC50 (NB4; Homo sapiens, NB-4, NB4, 72 h, CTG): 3280 nM
- Classification by AUC (NB4; NB4): Insensitive (AUC ≥ 2.8, insensitive)
- AUC (NB4; NB4, area under the dose–response curve): 2.865
- Classification by AUC (AML-193; AML-193): Intermediate (2.4 < AUC < 2.8, intermediate)
- IC50 (AML-193; AML-193, 120 h, CTG): 6290 nM
- AUC (AML-193; AML-193, area under the dose–response curve): 2.514
- IC50 (MOLM-16; MOLM16, MOLM-16, 72 h, CTG): 4770 nM
- Classification by AUC (MOLM-16; MOLM-16): Insensitive (AUC ≥ 2.8, insensitive)
- AUC (MOLM-16; MOLM-16, area under the dose–response curve): 2.992
- IC50 (MOLM-13; Homo sapiens, MOLM-13, 72 h, CTG): 103 nM
- Classification by AUC (MOLM-13; MOLM-13): Sensitive (AUC ≤ 2.4, sensitive)
- AUC (MOLM-13; MOLM-13, area under the dose–response curve): 1.068
- IC50 (MONOMAC-6; Homo sapiens, MONO-MAC-6, MONOMAC-6, 72 h, CTG): 1520 nM
- Classification by AUC (MONOMAC-6; MONOMAC-6): Sensitive (AUC ≤ 2.4, sensitive)
- AUC (MONOMAC-6; MONOMAC-6, area under the dose–response curve): 2.356
- Classification by AUC (HL-60; HL-60): Insensitive (AUC ≥ 2.8, insensitive)
- AUC (HL-60; HL-60, area under the dose–response curve): 2.836
- IC50 (HL-60; Homo sapiens, HL-60, 72 h, CTG): 6140 nM
- IC50 (KASUMI-1; Homo sapiens, KASUMI-1, 72 h, CTG): 169 nM
- Classification by AUC (KASUMI-1; KASUMI-1): Sensitive (AUC ≤ 2.4, sensitive)
- AUC (KASUMI-1; KASUMI-1, area under the dose–response curve): 1.307
- IC50 (THP-1; Homo sapiens, THP-1, 72 h, CTG): > 100000 nM
- Classification by AUC (THP-1; THP-1): Insensitive (AUC ≥ 2.8, insensitive)
- AUC (THP-1; THP-1, area under the dose–response curve): 3.445
